Test results from ChEMBL document CHEMBL2396560, “Discovery of (R)-4-cyclopropyl-7,8-difluoro-5-(4-(trifluoromethyl)phenylsulfonyl)-4,5-dihydro-1H-pyrazolo[4,3-c]quinoline (ELND006) and (R)-4-cyclopropyl-8-fluoro-5-(6-(trifluoromethyl)pyridin-3-ylsulfonyl)-4,5-dihydro-2H-pyrazolo[4,3-c]quinoline (ELND007): metabolically stable γ-secretase …” (J Med Chem, 2013).
Values after ≈ are worked out from the molar mass of the structure shown. Each block holds one compound with its values, some of them ahead of it.

Legend:
[1] = Plasma concentration in FVB mouse at 1 mg/kg, po at 3 hrs; format: ADME, organism-based; set-up: dose 1 mg/kg, route oral
Mus musculus [2] = experiment: Toxicity in FVB mouse assessed as effect on Hes-1 mRNA level in thymus at 3 mg/kg, po administered as single dose measured at 3 hrs; format: organism-based; set-up: dose 3 mg/kg, route oral; conditions: in vivo
Liver microsomes [3] = experiment: Oxidative metabolism in rat liver microsomes assessed as compound remaining; format: ADME, Microsome
Brain [4] = experiment: AUC (0 to 3 hrs) in FVB mouse brain at 1 mg/kg, po; format: ADME, organism-based; set-up: time < 3 hr, dose 1 mg/kg, route oral; conditions: in vivo
Mus musculus [5] = experiment: Selectivity ratio of EC25 for Reduction in amyloid beta (x to 40) brain to EC25 for change in Hes-1 mRNA level in thymus in po dosed FVB mouse
Mus musculus [6] = experiment: Reduction in amyloid beta (x to 40) in FVB mouse cortex at 30 mg/kg, po administered as single dose measured at 6 hrs post administration; format: functional; set-up: scale not given: the % may be the effect or the level left
Liver [7] = experiment: Oxidative metabolism in mouse liver microsomes assessed as compound remaining; format: ADME, Microsome
Brain [8] = experiment: AUC (0 to 3 hrs) in FVB mouse brain at 3 mg/kg, po; format: ADME, organism-based; set-up: time < 3 hr, dose 3 mg/kg, route oral; conditions: in vivo
Mus musculus [9] = experiment: Reduction in amyloid beta (x to 40) in FVB mouse cortex at 10 mg/kg, po administered as single dose measured at 3 hrs; format: functional; set-up: scale not given: the % may be the effect or the level left
Liver microsomes [10] = experiment: Oxidative metabolism in human liver microsomes assessed as compound remaining; format: ADME, Microsome
Mus musculus [11] = experiment: Reduction in amyloid beta (x to 40) in po dosed FVB mouse brain administered as single dose measured at 3 hrs; format: functional
[12] = Aqueous solubility of the compound; format: physicochemical; conditions: buffer
[13] = Drug uptake in FVB mouse brain at 1 mg/kg, po at 3 hrs; format: ADME, organism-based; set-up: dose 1 mg/kg, route oral; conditions: read-out: Drug uptake
[14] = Plasma concentration in FVB mouse at 10 mg/kg, po at 3 hrs; format: ADME, organism-based; set-up: dose 10 mg/kg, route oral
Plasma [15] = experiment: AUC (0 to 3 hrs) in FVB mouse plasma at 3 mg/kg, po; format: ADME, organism-based; set-up: time < 3 hr, dose 3 mg/kg, route oral; conditions: in vivo
Cynomolgus monkey = experiment: Hepatic toxicity in cynomolgus monkey administered for 1 year as repeated-dosing; format: organism-based, Macaca fascicularis; conditions: in vivo
Homo sapiens [16] = experiment: Reduction in amyloid beta in CSF of po dosed healthy human administered as gelatin capsule measured after 5 hrs post administration; format: functional; set-up: scale not given: the % may be the effect or the level left
CHO [17] = experiment: Inhibition of gamma-secretase in CHO cells assessed expressing NotchdeltaE assessed as inhibition of notch cleavage after overnight incubation by luciferase reporter gene assay; format: cell-based; conditions: Cricetulus griseus
CHO [18] = experiment: Inhibition of gamma-secretase in CHO cells assessed expressing APPSw assessed as inhibition of amyloid beta(1 to x) secretion after overnight incubation by ELISA; format: cell-based; conditions: Cricetulus griseus
Mus musculus [19] = experiment: Toxicity in FVB mouse assessed as thymus atrophy compound administered orally bid for 7 days; format: organism-based; conditions: in vivo, po, 168 h
Homo sapiens [20] = experiment: Hepatic toxicity in po dosed healthy human administered as gelatin capsule; format: organism-based; conditions: in vivo
Gamma-secretase [21] = experiment: Inhibition of partially purified human gamma-secretase-mediated cleavage of notch fusion protein measured after overnight incubation by ELISA; format: protein-complex assay
Liver microsomes [22] = experiment: Glucuronidation metabolism in human liver microsomes assessed as compound remaining; format: ADME, Microsome
Mus musculus [23] = experiment: Reduction in amyloid beta (x to 40) in FVB mouse cortex at 1 mg/kg, po administered as single dose measured at 3 hrs; format: functional; set-up: scale not given: the % may be the effect or the level left
Rattus norvegicus [24] = organism: Rattus norvegicus; experiment: Systemic clearance in rat relative to hepatic blood flow; format: ADME, organism-based, Liver; conditions: in vivo
Rattus norvegicus [25] = experiment: Hepatic toxicity in rat administered for 6 months as repeated-dosing; format: organism-based; conditions: in vivo
Mus musculus [26] = experiment: Toxicity in FVB mouse assessed as effect on Hes-1 mRNA level in thymus at 10 mg/kg, po administered as single dose measured at 3 hrs; format: organism-based; set-up: dose 10 mg/kg, route oral; conditions: in vivo
Liver [27] = experiment: Glucuronidation metabolism in dog liver microsomes assessed as compound remaining; format: ADME, Canis lupus familiaris, Microsome
[28] = Drug uptake in FVB mouse brain at 10 mg/kg, po at 3 hrs; format: ADME, organism-based; set-up: dose 10 mg/kg, route oral; conditions: read-out: Drug uptake
Mus musculus [29] = experiment: Reduction in amyloid beta (x to 40) in FVB mouse cortex at 30 mg/kg, po administered as single dose measured at 3 hrs; format: functional; set-up: scale not given: the % may be the effect or the level left
[30] = Drug uptake in FVB mouse brain at 3 mg/kg, po at 3 hrs; format: ADME, organism-based; set-up: dose 3 mg/kg, route oral; conditions: read-out: Drug uptake
[31] = Plasma concentration in FVB mouse at 3 mg/kg, po at 3 hrs; format: ADME, organism-based; set-up: dose 3 mg/kg, route oral
Mus musculus [32] = experiment: Toxicity in FVB mouse assessed as effect on Hes-1 mRNA level in thymus at 30 mg/kg, po administered as single dose measured at 3 hrs; format: organism-based; set-up: dose 30 mg/kg, route oral; conditions: in vivo
Liver [33] = experiment: Oxidative metabolism in dog liver microsomes assessed as compound remaining; format: ADME, Canis lupus familiaris, Microsome
[34] = Systemic clearance in rat; format: ADME, organism-based; conditions: in vivo
Mus musculus [35] = experiment: Reduction in amyloid beta (x to 40) in FVB mouse cortex at 3 mg/kg, po administered as single dose measured at 3 hrs; format: functional; set-up: scale not given: the % may be the effect or the level left
Brain [36] = experiment: AUC (0 to 3 hrs) in FVB mouse brain at 10 mg/kg, po; format: ADME, organism-based; set-up: time < 3 hr, dose 10 mg/kg, route oral; conditions: in vivo
[37] = target: Gamma-secretase (Homo sapiens) (UniProt Q96BI3+Q9NZ42+Q8WW43+P49768+Q92542+P49810); experiment: Selctivity ratio of IC50 for partially purified human gamma-secretase-mediated cleavage of notch fusion protein to IC50 for partially purified human gamma-secretase-mediated cleavage of MBP-APPc125Sw fusion protein; format: protein-complex assay
[38] = Octanol-water partition co-efficient, log P of the compound by shake-flask method; format: physicochemical
Liver [39] = experiment: Glucuronidation metabolism in mouse liver microsomes assessed as compound remaining; format: ADME, Microsome
Gamma-secretase [40] = experiment: Inhibition of partially purified human gamma-secretase-mediated cleavage of MBP-APPc125Sw fusion protein measured after overnight incubation by ELISA; format: protein-complex assay
Plasma [41] = experiment: AUC (0 to 3 hrs) in FVB mouse plasma at 1 mg/kg, po; format: ADME, organism-based; set-up: time < 3 hr, dose 1 mg/kg, route oral; conditions: in vivo
Mus musculus [42] = experiment: Toxicity in FVB mouse assessed as goblet cell hyperplasia in intestine compound administered orally bid for 7 days; format: organism-based; conditions: in vivo, po, 168 h
[43] = Plasma concentration in FVB mouse at 30 mg/kg, po at 3 hrs; format: ADME, organism-based; set-up: dose 30 mg/kg, route oral
Liver microsomes [44] = experiment: Glucuronidation metabolism in rat liver microsomes assessed as compound remaining; format: ADME, Microsome
[45] = Drug uptake in FVB mouse brain at 30 mg/kg, po at 3 hrs; format: ADME, organism-based; set-up: dose 30 mg/kg, route oral; conditions: read-out: Drug uptake
CHO [46] = experiment: Selctivity ratio of ED50 for gamma-secretase in CHO cells assessed expressing NotchdeltaE assessed as inhibition of notch cleavage to ED50 for gamma-secretase in CHO cells assessed expressing APPSw assessed as inhibition of amyloid beta(1 to x) secretion; format: cell-based; conditions: Cricetulus griseus
Plasma [47] = experiment: AUC (0 to 3 hrs) in FVB mouse plasma at 10 mg/kg, po; format: ADME, organism-based; set-up: time < 3 hr, dose 10 mg/kg, route oral; conditions: in vivo
Mus musculus [48] = experiment: Toxicity in FVB mouse assessed as effect on Hes-1 mRNA level in thymus at 1 mg/kg, po administered as single dose measured at 3 hrs; format: organism-based; set-up: dose 1 mg/kg, route oral; conditions: in vivo
Brain [49] = experiment: AUC (0 to 3 hrs) in FVB mouse brain at 30 mg/kg, po; format: ADME, organism-based; set-up: time < 3 hr, dose 30 mg/kg, route oral; conditions: in vivo
Plasma [50] = experiment: AUC (0 to 3 hrs) in FVB mouse plasma at 30 mg/kg, po; format: ADME, organism-based; set-up: time < 3 hr, dose 30 mg/kg, route oral; conditions: in vivo
[51] = Passive permebility in wild-type MDCK cells; format: ADME, cell-based, Canis lupus familiaris; conditions: dog, read-out: permeability
[52] = Oral bioavailability in rat; format: ADME, organism-based; conditions: in vivo

concentration at 3 h [1]: 31 nM
Stability (Liver microsomes [3]): 66%
AUC (Brain [4]): 0.64 µM
Stability (Liver [7]): 72%
AUC (Brain [8]): 2.1 µM
Stability (Liver microsomes [10]): 80%
solubility [12]: 3 µg/mL (≈ 6.59 µM)
concentration at 3 h [13]: 120 nM
concentration at 3 h [14]: 900 nM
AUC (Plasma [15]): 0.68 µM
IC50 (Gamma-secretase [21]): 6.6 nM
Stability (Liver microsomes [22]): 90%
CLH (Rattus norvegicus [24]): 40%
Stability (Liver [27]): 90%
concentration at 3 h [28]: 2100 nM
concentration at 3 h [30]: 520 nM
concentration at 3 h [31]: 190 nM
Stability (Liver [33]): 75%
clearance [34]: 22 mL/min/kg
AUC (Brain [36]): 7 µM
Ratio IC50 [37]: 19
logP [38]: 3.91
Stability (Liver [39]): 88%
IC50 (Gamma-secretase [40]): 0.34 nM
AUC (Plasma [41]): 0.19 µM
concentration at 3 h [43]: 3000 nM
Stability (Liver microsomes [44]): 90%
concentration at 3 h [45]: 7200 nM
AUC (Plasma [47]): 0.68 µM
SMILES: O=S(=O)(c1ccc(C(F)(F)F)cc1)N1c2cc(F)c(F)cc2-c2n[nH]cc2[C@H]1C1CC1
Activity (Mus musculus [2]): -17%
Selectivity ratio (Mus musculus [5]): 57
Activity (Mus musculus [6]): 82%
Activity (Mus musculus [9]): 61%
EC25(unbound) (Mus musculus [11]): 0.034 nM
Activity (Cynomolgus monkey): Non-toxic
Activity (Homo sapiens [16]): 31%
ED50 (CHO [17]): 86 nM
ED50 (CHO [18]): 1.1 nM
Activity (Mus musculus [19]): Non-toxic
Activity (Homo sapiens [20]): Toxic
Activity (Mus musculus [23]): 32%
Activity (Rattus norvegicus [25]): Non-toxic
Activity (Mus musculus [26]): -14%
Activity (Mus musculus [29]): 64%
Activity (Mus musculus [32]): -25%
Activity (Mus musculus [35]): 48%
Activity (Mus musculus [42]): Non-toxic
Ratio ED50 (CHO [46]): 78

concentration at 3 h [1]: 14 nM
Stability (Liver microsomes [3]): 81%
AUC (Brain [4]): 0.24 µM
Stability (Liver [7]): 80%
AUC (Brain [8]): 0.92 µM
Stability (Liver microsomes [10]): 85%
solubility [12]: 100 µg/mL (≈ 228 µM)
concentration at 3 h [13]: 45 nM
concentration at 3 h [14]: 1200 nM
AUC (Plasma [15]): 0.57 µM
IC50 (Gamma-secretase [21]): 1.7 nM
Stability (Liver microsomes [22]): 91%
CLH (Rattus norvegicus [24]): 42%
Stability (Liver [27]): 87%
AUC (Brain [49]): 11 µM
AUC (Plasma [50]): 12 µM
concentration at 3 h [28]: 1000 nM
concentration at 3 h [30]: 220 nM
concentration at 3 h [31]: 79 nM
Stability (Liver [33]): 80%
clearance [34]: 23 mL/min/kg
AUC (Brain [36]): 4.1 µM
Ratio IC50 [37]: 17
logP [38]: 3.65
Stability (Liver [39]): 90%
Papp [51]: 8.8 ×10⁻⁶ cm/s
bioavailability [52]: 92%
IC50 (Gamma-secretase [40]): 0.1 nM
AUC (Plasma [41]): 0.14 µM
concentration at 3 h [43]: 3500 nM
Stability (Liver microsomes [44]): 91%
concentration at 3 h [45]: 2600 nM
AUC (Plasma [47]): 4.7 µM
SMILES: O=S(=O)(c1ccc(C(F)(F)F)nc1)N1c2ccc(F)cc2-c2n[nH]cc2[C@H]1C1CC1
Activity (Mus musculus [2]): -21%
Activity (Mus musculus [9]): 61%
Activity (Mus musculus [48]): 11%
ED50 (CHO [17]): 20 nM
ED50 (CHO [18]): 0.28 nM
Activity (Homo sapiens [20]): Toxic
Activity (Mus musculus [23]): 34%
Activity (Mus musculus [26]): -44%
Activity (Mus musculus [29]): 62%
Activity (Mus musculus [32]): -46%
Activity (Mus musculus [35]): 56%
Ratio ED50 (CHO [46]): 71
